Like-named read-outs stand apart in the source and are kept apart here. Starred links: 1 amine or outer side, 2 acyl side, 3 side chain; linkers in the order of their positions; H or OH if unused. Positions of bridges follow the written chain, without caps; N, C: chain ends. Residues, ends and D or L forms follow the SMILES beside them. *: point of attachment. C18 diacid = O=C(O)CCCCCCCCCCCCCCCCC(=O)*; γGlu = O=C(O)[C@H](CCC(=O)[*:2])N[*:1]; AEEA = NCCOCCOCC(=O)O
How the values were obtained:
[1] = High-Molecular-Weight-Protein (HMWP) formation by SEC-UPLC; format: physicochemical; conditions: increase over two weeks at 37° C.
How it was run: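 Formulations at pH 4.0 or 6.5 incubated quiescently for two weeks at 37 °C; HMWP (peaks eluting before monomer, % of total peptide area) measured by SEC-UPLC, pH 2.4 mobile phase with 50% isopropanol, 50 °C, UV 215 nm. Value is HMWP increase, normalized to two weeks if needed.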

[2] = PK of CNP compounds after i.v. and s.c. administration to rats; conditions: male, Sprague Dawley, in vivo, rat; for clearance: read-out: Cl (L/hr/kg), i.v. administration (converted); for bioavailability: s.c. bioavailability, read-out: F (%), s.c. administration
How it was run: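 Plasma exposure was quantified by protein precipitation and turboflow LC-MS/MS in SRM mode. Rats received either 100 nmol/kg intravenously or 300 nmol/kg subcutaneously, with sublingual blood taken at baseline and at points up to 72 h. Per-animal NCA gave clearance as Dose/AUCinf, and results are averaged over 4-6 animals.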

[3] = iv, i.v., about 100 nmol/kg, read-out: T½ (hr), i.v. administration (converted)
[4] = sc, s.c., about 300 nmol/kg, read-out: T½ (hr), s.c. administration (converted)

SMILES | 2-Week HMWP formation at pH 6.5 (%), % relative to total peak area [1] [%] | clearance ([2]; iv, i.v., about 100 nmol/kg) [L/h/kg] | half-life [2, 3] [h] | bioavailability ([2]; sc, about 300 nmol/kg) [%] | half-life [2, 4] [h] | 2-Week HMWP formation at pH 4.0 (%), % relative to total peak area ([1]; pH 4.0) [%]
CC[C@H](C)[C@@H]1NC(=O)[C@H](CCCNC(=N)N)NC(=O)[C@H](CC(=O)O)NC(=O)[C@H](CC(C)C)NC(=O)[C@@H]2CCCN2C(=O)[C@H](CC(C)C)NC(=O)CNC(=O)[C@H](Cc2ccccc2)NC(=O)[C@@H](NC(=O)CNC(=O)[C@H](CO)NC(=O)[C@H](CO)NC(=O)[C@H](CC(C)C)NC(=O)CNC(=O)[C@H](CCCCN)NC(=O)[C@H](CCCCN)NC(=O)[C@H](CCC(N)=O)NC(=O)[C@H](C)NC(=O)CNC(=O)[C@H](CCCCN)NC(=O)[C@H](Cc2ccc(O)cc2)NC(=O)[C@H](CCCCN)NC(=O)[C@H](CCCNC(=N)N)NC(=O)[C@H](C)NC(=O)[C@H](CCC(N)=O)NC(=O)[C@@H]2CCCN2C(=O)[C@H](Cc2c[nH]cn2)NC(=O)[C@H](CCC(=O)O)NC(=O)[C@H](CCC(N)=O)NC(=O)CC[C@H](NC(=O)CC[C@H](NC(=O)CC[C@H](NC(=O)CC[C@H](NC(=O)CC[C@H](NC(=O)CCCCCCCCCCCCCCCCC(=O)O)C(=O)O)C(=O)O)C(=O)O)C(=O)O)C(=O)O)CSSC[C@@H](C(=O)O)NC(=O)CNC(=O)[C@H](CC(C)C)NC(=O)CNC(=O)[C@H](CO)NC(=O)[C@H](CC(C)C)NC(=O)[C@H](CO)NC(=O)CNC1=O [compound 9482] ({C18 diacid-γGlu-γGlu-γGlu-γGlu-γGlu}-QEHPQARKYKGAQKKGLSSGCFGLPLDRIGSLSGLGC-OH; disulfide 21-37) | 1.96 | 0.00549 | 14.5 | 71.5 | 18.6 | –
CC[C@H](C)[C@@H]1NC(=O)[C@H](CCCNC(=N)N)NC(=O)[C@H](CC(=O)O)NC(=O)[C@H](CC(C)C)NC(=O)[C@@H]2CCCN2C(=O)[C@H](CC(C)C)NC(=O)CNC(=O)[C@H](Cc2ccccc2)NC(=O)[C@@H](NC(=O)CNC(=O)[C@H](CCC(N)=O)NC(=O)[C@H](CO)NC(=O)[C@H](CC(C)C)NC(=O)CNC(=O)[C@H](CCCCN)NC(=O)[C@H](CCCCN)NC(=O)[C@H](CCC(N)=O)NC(=O)[C@H](C)NC(=O)CNC(=O)[C@H](CCCCN)NC(=O)[C@H](Cc2ccc(O)cc2)NC(=O)[C@H](CCCCN)NC(=O)[C@H](CCCNC(=N)N)NC(=O)[C@H](C)NC(=O)COCCOCCNC(=O)COCCOCCNC(=O)COCCOCCNC(=O)COCCOCCNC(=O)CC[C@H](NC(=O)CC[C@H](NC(=O)CC[C@H](NC(=O)CC[C@H](NC(=O)CC[C@H](NC(=O)CCCCCCCCCCCCCCCCC(=O)O)C(=O)O)C(=O)O)C(=O)O)C(=O)O)C(=O)O)CSSC[C@@H](C(=O)O)NC(=O)CNC(=O)[C@H](CC(C)C)NC(=O)CNC(=O)[C@H](CO)NC(=O)[C@H](CC(C)C)NC(=O)[C@H](CO)NC(=O)CNC1=O [compound 9407] ({C18 diacid-γGlu-γGlu-γGlu-γGlu-γGlu-AEEA-AEEA-AEEA-AEEA}-ARKYKGAQKKGLSQGCFGLPLDRIGSLSGLGC-OH; disulfide 16-32) | 12 | 0.00515 | 15.2 | 37.2 | 14.9 | –
CC[C@H](C)[C@@H]1NC(=O)[C@H](CCCNC(=N)N)NC(=O)[C@H](CC(=O)O)NC(=O)[C@H](CC(C)C)NC(=O)[C@@H]2CCCN2C(=O)[C@H](CC(C)C)NC(=O)CNC(=O)[C@H](Cc2ccccc2)NC(=O)[C@@H](NC(=O)CNC(=O)[C@H](CO)NC(=O)[C@H](CO)NC(=O)[C@@H](NC(=O)CNC(=O)[C@@H](NC(=O)[C@H](CCCCN)NC(=O)[C@H](CCC(N)=O)NC(=O)[C@H](C)NC(=O)CNC(=O)[C@H](Cc2c[nH]cn2)NC(=O)[C@H](Cc2ccc(O)cc2)NC(=O)COCCOCCNC(=O)COCCOCCNC(=O)COCCOCCNC(=O)CC[C@H](NC(=O)CCCCCCCCCCCCCCCCC(=O)O)C(=O)O)[C@@H](C)O)C(C)C)CSSC[C@@H](C(=O)O)NC(=O)CNC(=O)[C@H](CC(C)C)NC(=O)CNC(=O)[C@H](CO)NC(=O)[C@H](CC(C)C)NC(=O)[C@H](CO)NC(=O)CNC1=O [compound 1352] ({C18 diacid-γGlu-AEEA-AEEA-AEEA}-YHGAQKTGVSSGCFGLPLDRIGSLSGLGC-OH; disulfide 13-29) | 0.82 | 0.0102 | 6.34 | – | – | –
CC[C@H](C)[C@@H]1NC(=O)[C@H](CCCNC(=N)N)NC(=O)[C@H](CC(=O)O)NC(=O)[C@H](CC(C)C)NC(=O)[C@@H]2CCCN2C(=O)[C@H](CC(C)C)NC(=O)CNC(=O)[C@H](Cc2ccccc2)NC(=O)[C@@H](NC(=O)CNC(=O)[C@H](CCC(N)=O)NC(=O)[C@H](CO)NC(=O)[C@H](CO)NC(=O)CNC(=O)[C@H](CCCCN)NC(=O)[C@H](CCCCN)NC(=O)[C@H](CCC(N)=O)NC(=O)[C@H](C)NC(=O)CNC(=O)[C@@H]2CCCN2C(=O)[C@H](C)NC(=O)[C@H](CCC(N)=O)NC(=O)CNC(=O)COCCOCCNC(=O)COCCOCCNC(=O)CC[C@H](NC(=O)CCCCCCCCCCCCCCCCC(=O)O)C(=O)O)CSSC[C@@H](C(=O)O)NC(=O)CNC(=O)[C@H](CC(C)C)NC(=O)CNC(=O)[C@H](CO)NC(=O)[C@H](CC(C)C)NC(=O)[C@H](CO)NC(=O)CNC1=O [compound 9384] ({C18 diacid-γGlu-AEEA-AEEA}-GQAPGAQKKGSSQGCFGLPLDRIGSLSGLGC-OH; disulfide 15-31; C-terminus assumed) | 1.5 | 0.00493 | 9.15 | 49.7 | 9.47 | –
CC[C@H](C)[C@@H]1NC(=O)[C@H](CCCNC(=N)N)NC(=O)[C@H](CC(=O)O)NC(=O)[C@H](CC(C)C)NC(=O)[C@@H]2CCCN2C(=O)[C@H](CC(C)C)NC(=O)CNC(=O)[C@H](Cc2ccccc2)NC(=O)[C@@H](NC(=O)CNC(=O)[C@H](CO)NC(=O)[C@H](CO)NC(=O)[C@H](CC(C)C)NC(=O)CNC(=O)[C@H](CCCCN)NC(=O)[C@H](CCCCN)NC(=O)[C@H](CCC(N)=O)NC(=O)[C@H](C)NC(=O)CNC(=O)[C@H](CCC(=O)O)NC(=O)[C@H](Cc2ccc(O)cc2)NC(=O)CNC(=O)CNC(=O)CNC(=O)COCCOCCNC(=O)COCCOCCNC(=O)CC[C@H](NC(=O)CCCCCCCCCCCCCCCCC(=O)O)C(=O)O)CSSC[C@@H](C(=O)O)NC(=O)CNC(=O)[C@H](CC(C)C)NC(=O)CNC(=O)[C@H](CO)NC(=O)[C@H](CC(C)C)NC(=O)[C@H](CO)NC(=O)CNC1=O [compound 1378] ({C18 diacid-γGlu-AEEA-AEEA}-GGGYEGAQKKGLSSGCFGLPLDRIGSLSGLGC-OH; disulfide 16-32) | 6.67 | 0.00926 | 5.29 | – | – | –
CC[C@H](C)[C@@H]1NC(=O)[C@H](CCCNC(=N)N)NC(=O)[C@H](CC(=O)O)NC(=O)[C@H](CC(C)C)NC(=O)[C@@H]2CCCN2C(=O)[C@H](CC(C)C)NC(=O)CNC(=O)[C@H](Cc2ccccc2)NC(=O)[C@@H](NC(=O)CNC(=O)[C@H](CCC(N)=O)NC(=O)[C@H](CO)NC(=O)CNC(=O)CNC(=O)[C@H](CCCCN)NC(=O)[C@H](CCCCN)NC(=O)[C@H](CCC(N)=O)NC(=O)[C@H](C)NC(=O)CNC(=O)[C@H](Cc2c[nH]cn2)NC(=O)[C@H](Cc2ccc(O)cc2)NC(=O)COCCOCCNC(=O)COCCOCCNC(=O)COCCOCCNC(=O)COCCOCCNC(=O)CC[C@H](NC(=O)CC[C@H](NC(=O)CCCCCCCCCCCCCCCCC(=O)O)C(=O)O)C(=O)O)CSSC[C@@H](C(=O)O)NC(=O)CNC(=O)[C@H](CC(C)C)NC(=O)CNC(=O)[C@H](CO)NC(=O)[C@H](CC(C)C)NC(=O)[C@H](CO)NC(=O)CNC1=O [compound 1434] ({C18 diacid-γGlu-γGlu-AEEA-AEEA-AEEA-AEEA}-YHGAQKKGGSQGCFGLPLDRIGSLSGLGC-OH; disulfide 13-29) | 3.2 | 0.00764 | 8.34 | – | – | –
CC[C@H](C)[C@@H]1NC(=O)[C@H](CCCNC(=N)N)NC(=O)[C@H](CC(=O)O)NC(=O)[C@H](CC(C)C)NC(=O)[C@@H]2CCCN2C(=O)[C@H](CC(C)C)NC(=O)CNC(=O)[C@H](Cc2ccccc2)NC(=O)[C@@H](NC(=O)CNC(=O)[C@H](CO)NC(=O)[C@H](CO)NC(=O)[C@H](CC(C)C)NC(=O)CNC(=O)[C@H](CCCCN)NC(=O)[C@H](CCCCN)NC(=O)[C@H](CCC(N)=O)NC(=O)[C@H](C)NC(=O)CNC(=O)[C@H](CCCCN)NC(=O)[C@H](Cc2ccc(O)cc2)NC(=O)[C@H](CCCCN)NC(=O)[C@H](CCCNC(=N)N)NC(=O)[C@H](C)NC(=O)[C@H](CCC(N)=O)NC(=O)[C@@H]2CCCN2C(=O)[C@H](Cc2c[nH]cn2)NC(=O)[C@H](CCC(=O)O)NC(=O)[C@H](CCC(N)=O)NC(=O)CC[C@H](NC(=O)CC[C@H](NC(=O)CC[C@H](NC(=O)CC[C@H](NC(=O)CCCCCCCCCCCCCCCCC(=O)O)C(=O)O)C(=O)O)C(=O)O)C(=O)O)CSSC[C@@H](C(=O)O)NC(=O)CNC(=O)[C@H](CC(C)C)NC(=O)CNC(=O)[C@H](CO)NC(=O)[C@H](CC(C)C)NC(=O)[C@H](CO)NC(=O)CNC1=O [compound 1389] ({C18 diacid-γGlu-γGlu-γGlu-γGlu}-QEHPQARKYKGAQKKGLSSGCFGLPLDRIGSLSGLGC-OH; disulfide 21-37) | – | 0.00415 | 14.6 | – | – | 1.43

Reference: US20240209028A1, “CNP COMPOUNDS” (priority 2022, published 2024)
